In publication PMC12834051, “Improved synthesis and physicochemical characterization of the selective serotonin 2A receptor agonist 25CN-NBOH” (Beilstein Journal of Organic Chemistry, 2026):
Values after ≈ are worked out from the molar mass of the structure shown. Values joined by “and” are separate entries in the source; they are usually repeats but may differ in a detail not shown here. Equal entries are not always repeated. “Also recorded” adds a separate entry of the source. Structures can show the parent of a compound that is named as a salt. Where two headings read alike, the source gives them in different places.

Tests used:
[1] = Thermodynamic solubility in ultrapure water; format: physicochemical
Procedure: The solubility of 1·HCl in water was determined at 25 ± 0.5 °C by adding 30 mg to ultrapure water (3 mL) in screw-capped glass vials, giving a suspension where a solid precipitate could be observed at all timepoints. The samples were ultrasonicated for 3 min before being rotated in a temperature-controlled Incubator Hood TH 30 (Edmund Bühler, Bodelshausen, Germany). Sample aliquots of 600 µL were withdrawn after 30, 48, and 74 h and transferred to Eppendorf tubes. The samples were centrifuged at 19,000g for 15 min using a MiniSpin Plus (Eppendorf, Hamburg, Germany) and the supernatant filtered through a 0.45 µm PVDF filter (Ø = 4 mm, Phenomenex) with the first 400 µL being discarded. Samples were diluted with ultrapure water before measurement by a UV spectrophotometry at 241 nm using 10 mm micro quartz cuvettes (Hellma GmbH & Co. KG, Müllheim, Germany) and a Cary 60 UV–vis spectrophotometer (Agilent Technologies). Cary WinUV Simple Reads Application (Version 5.0.0, Agilent Technologies) was used for instrument control and data collection. The experiment was performed in triplicate.

[2] = Stability in solution (HPLC peak areas); format: physicochemical
Procedure: The stability of 1 was determined in 67 mM sodium phosphate buffer (pH 7.40, I = 0.18 M) and water at 25 ± 0.5 °C. The solutions comprising 0.2 mg/mL of 1·HCl were kept in a temperature-controlled incubator, and samples were measured by HPLC immediately after sample preparation as well as after one and four weeks for the experiments in phosphate buffer and after four weeks for experiments in ultrapure water. The stability of 1 was assessed based on peak areas. The experiment was performed in triplicate.
(§1) Samples from distribution coefficient and stability experiments were analyzed using an Agilent 1260 Infinity system (Agilent Technologies, Santa Clara, CA, USA) equipped with a column oven (Mikrolab Aarhus, Højbjerg, Denmark) and an Agilent 1100 series system (Agilent Technologies), respectively. Reversed-phase chromatography was performed using a Gemini C18 column (150 × 4.60 mm, 5 µm) with a Gemini C18 precolumn (4 × 3.00 mm, Phenomenex, Torrance, CA, USA). Detection was performed at 241 nm, the column temperature was 30 °C, the injection volume was 10 µL, and the flow rate was 1 mL/min. The mobile phase consisted of acetonitrile and 0.1% phosphoric acid in the ratios 35:65 and 25:75, v/v for the distribution coefficient and stability experiments, respectively. The ChemStation software (Version B.04.03, Agilent Technologies) was used for instrument control and data collection.

[3] = Apparent pKa by spectrophotometric titration (inForm, Sirius); format: physicochemical; conditions: for pKa: concentration-based, 30.8 °C, I = 0.172 M
Procedure: The molar absorption coefficients and apparent pKa values of 1 were determined by spectrophotometry using an inForm instrument from Sirius Analytical (Forest Row, UK). Molar absorption coefficients (absorbance), as a function of the wavelength (185–750 nm) and pH in the interval 2.0–12.0, were determined at 30.8 °C. A stock solution (5.0 mM) of 1·HCl in N-methyl-2-pyrrolidone (NMP) was added to 36 mL of an ionic strength-adjusted buffer solution (I = 0.172 M) containing acetate, phosphate, and sodium chloride while stirring at 300 rpm. The concentration of 1 during measurements ranged from 13–27 µM (three experiments each with three titrations were performed). Potentiometric titrations from high to low pH and low to high pH were performed by addition of 0.50 M HCl and 0.50 M NaOH, respectively, while UV–vis spectra were recorded using the fiber optic probe (10 mm light path) of the inForm diode array spectrometer. The instrument control and data analysis were performed using the inForm software Version 1.1.3.6 (Sirius Analytical, Forest Row, UK).

MDCK = MDCK assay, cited from earlier work
[4] = buffer at pH 7.4; cited from earlier work
[5] = Octanol/buffer distribution coefficient (logD); format: physicochemical; conditions: 25 °C
Procedure: The pH-dependent octanol/buffer distribution coefficients of 1 were determined at 25 ± 0.5 °C using the following buffers: 50 mM sodium citrate (pH 5.00, I = 0.15 M), 67 mM sodium phosphate (pH 7.40, I = 0.18 M), and 50 mM sodium carbonate (pH 9.50, I = 0.15 M). The ionic strength of the buffers was adjusted by adding a calculated amount of potassium chloride. The octanol phases were saturated with the appropriate buffer solution, and vice versa, before the start of the experiment. Solutions of 2, 0.5, and 0.1 mg/mL of the drug in the buffer solutions at pH 5.00, 7.40, and 9.50, respectively, were prepared. The organic phase was hereafter added to the buffer solution in a ratio of 1:9 at pH 5.00 and 7.40 and 1:19 at pH 9.50. The samples were rotated for 24 h in a temperature-controlled incubator at 25 °C. The concentration of 1 in the buffer solution before and after partitioning, ci and cw, respectively, was determined by HPLC, from which distribution coefficients, D, were calculated according to
where Vw and Vo are the volume of the buffer solution and organic phase, respectively. Each experiment was conducted in triplicate.
as §1

[6] = in vivo, rodents; maximal brain exposure rapidly attained; cited from earlier work
[7] = pH 7.4, calculated species distribution

Structure (SMILES)	pH of saturated solution in water ([1]; saturated solution of 1·HCl in ultrapure water)	solubility thermodynamic ([1]; ultrapure water, 25 °C, pH 6.24, water, thermodynamic from solid)	kinetic solubility ([1]; water, preparing 5 mg/mL requires shaking for several minutes)	stability in solution in phosphate buffer ([2]; phosphate buffer pH 7.4, 25 °C, 4 weeks)	stability in water ([2]; water, 25 °C, 4 weeks (1 month))	pKa ([3]; read-out: apparent pKa (phenol))	pKa ([3]; read-out: apparent pKa (protonated amine))	fraction present in the protonated form ([3]; pH 6.24, saturated solution of 1·HCl in ultrapure water)	fraction present as the neutral species [3, 7]	fraction present in the protonated form [3, 7]	fraction present as the neutral species ([3]; pH 9.5, calculated species distribution)	permeability apical–basal (MDCK; apical–basal)	permeability basal–apical (MDCK; basal–apical)	solubility in buffer [4]	logD at 24 h ([5]; pH 5.00, octanol/50 mM sodium citrate)	logD at 24 h ([5]; pH 7.4, pH 7.40, octanol/67 mM sodium phosphate)	logD at 24 h ([5]; pH 9.5, pH 9.50, octanol/50 mM sodium carbonate)	BBB permeability [6]
COc1cc(CCNCc2ccccc2O)c(OC)cc1C#N [1·HCl, 25CN-NBOH·HCl]	6.24 ± 0.01 and 6.24	8500 ± 300 µg/mL	low	stable	could not detect additional species; also recorded: stable	–	–	–	–	–	–	–	–	–	–	–	–	–
COc1cc(CCNCc2ccccc2O)c(OC)cc1C#N [Compound 1, 25CN-NBOH]	–	–	–	–	–	10.7 ± 0.1	8.4 ± 0.1	> 99%	~10%	approximately 90%	87%	29 ×10⁻⁶ cm/s	20 ×10⁻⁶ cm/s	400 µg/mL (≈ 1280 µM)	-0.76 ± 0.01	1.59 ± 0.02	2.58 ± 0.01	excellent BBB permeability
